# Experimental data: article PMC3262757 (Chemistry Central Journal, 2011)
# pIC50: −log10 of the molar value.
# Legend:
# JNK1 = format: cell-based
# JNK2 = format: cell-based
smiles,measurement,setting,value
"CCOc1nc(NC(=O)Cc2cc(OC)c(NC(C)=O)cc2OC)cc(N)c1C#N [compound 2, 2-(4-acetylamino-2,5-dimethoxyphenyl)-N-(4-amino-5-cyano-6-ethoxypyridin-2-yl)acetamide]",pIC50,JNK1,~5.82
same,pIC50,JNK2,~5.82
